From ChEMBL document CHEMBL2073931, “Interaction between methotrexate and nonsteroidal anti-inflammatory drugs in organic anion transporter” (Eur J Pharmacol, 2000)

Target: T1, Solute carrier family 22 member 6 (Rattus norvegicus, UniProt O35956)
T1 sequence (O35956 whole entry): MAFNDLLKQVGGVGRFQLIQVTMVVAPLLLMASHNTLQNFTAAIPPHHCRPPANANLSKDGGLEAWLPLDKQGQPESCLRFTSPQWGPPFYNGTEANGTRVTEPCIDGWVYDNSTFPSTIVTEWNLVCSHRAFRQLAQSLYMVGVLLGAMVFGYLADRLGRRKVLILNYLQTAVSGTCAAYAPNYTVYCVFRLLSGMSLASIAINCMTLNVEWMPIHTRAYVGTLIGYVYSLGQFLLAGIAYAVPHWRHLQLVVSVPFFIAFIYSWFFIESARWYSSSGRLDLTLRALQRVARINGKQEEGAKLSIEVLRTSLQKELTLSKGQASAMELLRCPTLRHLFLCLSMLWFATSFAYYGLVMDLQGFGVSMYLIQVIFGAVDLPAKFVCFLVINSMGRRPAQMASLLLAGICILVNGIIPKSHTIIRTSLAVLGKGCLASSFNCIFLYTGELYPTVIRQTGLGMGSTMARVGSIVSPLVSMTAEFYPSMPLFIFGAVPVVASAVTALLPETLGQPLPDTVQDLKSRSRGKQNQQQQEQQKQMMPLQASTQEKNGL
Assay: TP_TRANSPORTER: inhibition of MTX uptake in Xenopus laevis oocytes
Format: functional, cell-based, Oocyte
Conditions: for Activity: xenopus laevis, oocyte

O=C(O)c1ccccc1Nc1cccc(C(F)(F)F)c1 [FLUFENAMIC ACID]
Activity: inhibitor [+]

COc1ccc2c(c1)c(CC(=O)O)c(C)n2C(=O)c1ccc(Cl)cc1 [INDOMETHACIN]
Ki: 4200 nM

CC(C(=O)O)c1cccc(C(=O)c2ccccc2)c1 (centres undefined) [KETOPROFEN]
IC50: 500 nM

CCCCC1C(=O)N(c2ccccc2)N(c2ccccc2)C1=O [PHENYLBUTAZONE]
Activity: inhibitor [+]
